Data on one compound can be found in article PMC7701510, “Identification of HN252 as a potent inhibitor of protein phosphatase PPM1B” (Journal of Cellular and Molecular Medicine, 2020).

SMILES strings stand for the structures.

Test [1] relates to topoisomerases. The test can be described thus: Topoisomerase inhibition in vitro. It counts as biochemical. To be noted: data not shown.
For test [2], the target named is T1, STEP (Homo sapiens, UniProt P54829).
T1 sequence (P54829 1-565): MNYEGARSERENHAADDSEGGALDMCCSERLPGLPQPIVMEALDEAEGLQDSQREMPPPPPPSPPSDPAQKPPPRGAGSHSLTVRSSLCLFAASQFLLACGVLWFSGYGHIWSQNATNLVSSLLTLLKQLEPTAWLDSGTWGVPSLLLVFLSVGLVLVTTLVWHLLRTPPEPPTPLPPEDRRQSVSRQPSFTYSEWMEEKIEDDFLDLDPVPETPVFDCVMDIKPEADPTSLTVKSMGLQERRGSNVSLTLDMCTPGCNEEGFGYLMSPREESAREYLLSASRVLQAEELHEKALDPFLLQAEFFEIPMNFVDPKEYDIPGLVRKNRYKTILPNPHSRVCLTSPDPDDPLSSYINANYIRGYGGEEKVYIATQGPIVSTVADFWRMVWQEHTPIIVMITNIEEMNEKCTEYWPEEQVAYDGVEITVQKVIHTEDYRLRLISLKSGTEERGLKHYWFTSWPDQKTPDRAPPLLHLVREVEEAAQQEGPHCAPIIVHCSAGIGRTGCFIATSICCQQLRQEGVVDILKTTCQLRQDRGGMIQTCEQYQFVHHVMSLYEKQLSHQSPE
The experiment in a line: pNPP hydrolysis phosphatase assay (selectivity panel). The settings on record: pNPP as substrate. It counts as biochemical.

In test [3] the test system is HL7702 cells with PPM1B shRNA. The experiment in a line: Western blot of protein phosphorylation in PPM1B knockdown cells with HN252. The settings on record: HN252 5 μM, 2 h, at 30 h after transfection.
Procedure: Cells were lysed in lysis buffer (50 mM Tris‐HCl, 150 mM NaCl, 0.1% SDS, 1% NP‐40, 0.5% deoxycholate, pH 7.4), supplemented with protease inhibitor (Roche) and phosphatase inhibitor cocktails (Roche). Protein samples were separated by SDS‐PAGE and wet‐transferred to PVDF membranes (Millipore). The membrane was blocked for 1 h in 5% BSA in TBST at room temperature and probed with the appropriate primary antibodies and with an HRP‐conjugated secondary antibody.

`Nc1cc(-c2ccc(-c3ccc(O)c(O)c3)cc2)ccc1C(=O)O` [HN252]: the inhibition against topoisomerases result in test [1] is given as “no inhibition”. In test [2], the IC50 was determined as 91.1 ± 10.1 µM. In addition, the “effect on phosphorylation of AMPKα, CDK2 and p38” value in test [3] is “mild effect”.

A word on the IC50: it is the midpoint of a concentration-inhibition curve. High values mean a need for much substance, low ones inhibition by little substance.
